Assay results: PMC7541553 (Molecular cancer therapeutics, 2020)

Parameters: species or system BALB/C mice
Settings: mouse, in vivo, iv

Arg-Gly-Asp [RGD]
t1/2 in the circulation: 33.4 ± 0.9 min
